Patent publication US20230248626A1, “Compositions Comprising (Bio)-Alkanediols” (Symrise AG, priority 0001, published 2023)
≈ marks a conversion by molar mass, not a printed value. Like-named read-outs stand apart in the source and are kept apart here.

Tests used:
Assay type in all cases: cell-based
Aspergillus niger = test: MIC test (growth inhibition, 96 well plates, OD)
Procedure: (§1) The MIC test is a test on growth inhibition. Estimation of Minimum Inhibitory Concentration (MIC) is executed in 96 well plates. Through the comparison of bacterial growth with positive and negative controls via optical density (OD), different concentrations of given test substances are evaluated.
(§2) Bacteria are cultivated under adjusted conditions based on information of the German Collection of Microorganisms and Cell Cultures (DSMZ) and stored in 50% Glycerol prior to use. Afterwards, the following method was applied: Adding growth medium (according to microorganism) to each well of the microplate. Adding the test-substances in different concentrations, positive controls (water controls only with medium) and negative controls (benchmarks according to organism). Adding the microorganism in a concentration of 10^6 CFU/ml (CFU=colony forming units). Incubation of the microplates at appropriate conditions.
(§3) According to resulting growth, substance concentrations are labelled either as inhibiting or not and MIC is defined as the lowest concentration where a complete growth inhibition is visible. Experiments at concentration limits (highest concentration labelled as growth and lowest concentration labelled as inhibiting) are performed at least twice.

[1] = test system: Staphylococcus epidermidis; test: MIC test (growth inhibition, 96 well plates, OD)
Procedure: as §1, §2, §3

Anaerococcus octavius = test: MIC test (growth inhibition, 96 well plates, OD)
Procedure: as §1, §2, §3

Corynebacterium jeikeium = test: MIC test (growth inhibition, 96 well plates, OD); details: read-out: Minimum Inhibitory Concentration (MIC)
Procedure: as §1, §2, §3

Staphylococcus hominis = test: MIC test (growth inhibition, 96 well plates, OD); details: read-out: Minimum Inhibitory Concentration (MIC)
Procedure: as §1, §2, §3

Staphylococcus aureus = test: MIC test (growth inhibition, 96 well plates, OD); details: read-out: Minimum Inhibitory Concentration (MIC)
Procedure: as §1, §2, §3

Corynebacterium xerosis = test: MIC test (growth inhibition, 96 well plates, OD)
Procedure: as §1, §2, §3

Candida albicans = test: MIC test (growth inhibition, 96 well plates, OD); details: read-out: Minimum Inhibitory Concentration (MIC)
Procedure: as §1, §2, §3

Escherichia coli = test: MIC test (growth inhibition, 96 well plates, OD); details: read-out: Minimum Inhibitory Concentration (MIC)
Procedure: as §1, §2, §3

Propionibacterium acnes = test: MIC test (growth inhibition, 96 well plates, OD); details: Cutibacterium acnes; read-out: Minimum Inhibitory Concentration (MIC)
Procedure: as §1, §2, §3

human sebaceous glands = test: Sebum production of micro-dissected, cultured human sebaceous glands (lipids/proteins after six days); design: sebum reduction: concentration or dose not given beside the values; details: for sebum reduction: compared to untreated control, six days, single donor (FIG. 4)
Procedure: Additional tests were performed with human sebaceous glands in order to verify the modulatory activity of different 1,2-alkanediols and 2,3-alkanediols on sebum secretion. Several microbial species on the skin are lipid dependent and feed on the human sebum (e.g. Corynebacterium, Propionibacterium). Accordingly, sebum reduction can indirectly support the reduction of microorganisms on the skin and in this way also indirectly support e.g. dandruff or acne reduction.
For these experiments sebaceous glands had been micro-dissected and cultured with medium. The medium without any supplement served as untreated control. Medium with 5 μM Capsaicin served as positive control. Additionally, culture medium was supplemented with different concentrations of alkanediols. After six days the sebaceous glands were collected and lipids and proteins quantified. The total lipid amount being representative of sebum production was obtained by normalizing the quantified lipids upon the quantified proteins (i.e. mg of lipids/mg of proteins).

Aspergillus brasiliensis = test: MIC and Kull synergy index of 1,2-/2,3-alkanediol mixtures
Escherichia coli (EC) = test: Preservation efficacy test (PET), European Pharmacopoeia 5.1.3
Procedure: (§4) The preservation efficacy test (PET) was performed in accordance with European Pharmacopoeia § 5.1.3: The test is a reference European Pharmacopoeia method, that is to be used to evaluate the preservation system of a cosmetic or pharmaceutical preparation. The test consists of challenging the preparation under test, with prescribed inoculums of suitable microorganisms. The preservation porperties of the preparation are adequate if, in the conditions of the test, there is a significant fall or no increase, as appropriate, in the number of microorganisms in the inoculated preparations after the time prescribed.
(§5) The test microorganisms which were used, are the following:
(§6) Pseudomonas aeruginosa (PA) (bacterium); Staphylococcus aureus (SA) (bacterium); Escherichia coli (EC) (bacterium); Candida albicans (CA) (yeast); and Aspergillus brasiliensis (AB) (fungus).

[2] = test system: Staphylococcus aureus (SA); test: as above
Procedure: as §4, §5, §6

[3] = test system: Aspergillus brasiliensis (AB); test: as above
Procedure: as §4, §5, §6

[4] = test system: Pseudomonas aeruginosa (PA); test: as above
Procedure: as §4, §5, §6

Candida albicans (CA) = test: as above
Procedure: as §4, §5, §6

## CCCCCCCC(O)CO (centres unmarked) [1,2-nonanediol]
Aspergillus niger
  MIC: 2500 µg/mL (≈ 15.6 mM)
[1]
  MIC: 1000 µg/mL (≈ 6.24 mM)
Anaerococcus octavius
  MIC: 1000 µg/mL (≈ 6.24 mM)
Corynebacterium jeikeium
  MIC: 2500 µg/mL (≈ 15.6 mM)
Staphylococcus hominis
  MIC: 1000 µg/mL (≈ 6.24 mM)
Staphylococcus aureus
  MIC: 1000 µg/mL (≈ 6.24 mM)
Corynebacterium xerosis
  MIC: 2500 µg/mL (≈ 15.6 mM)
Candida albicans
  MIC: 1000 µg/mL (≈ 6.24 mM)
Escherichia coli
  MIC: 500 µg/mL (≈ 3.12 mM)
Propionibacterium acnes
  MIC: 1000 µg/mL (≈ 6.24 mM)
Human sebaceous glands
  sebum reduction: 28%
Human sebaceous glands; different donor (FIG. 5)
  concentration dependency of sebum reduction (in words): experimentally confirmed
Aspergillus brasiliensis; single 1,2-alkanediol, read-out: MIC Component A
  MIC: 500 µg/mL
Escherichia coli (EC); 0.1% in o/w emulsion
  number of microorganisms after 2 days: 6,700
  number of microorganisms after 7 days: 1
  number of microorganisms after 14 days: 1
  number of microorganisms after 28 days: 1
[2]; 0.1% in o/w emulsion
  number of microorganisms after 2 days: 2,300
  number of microorganisms after 7 days: 1
  number of microorganisms after 14 days: 1
  number of microorganisms after 28 days: 1
[3]; 0.1% in o/w emulsion
  number of microorganisms after 2 days: 2,300,000
  number of microorganisms after 7 days: 1,300,000
  number of microorganisms after 14 days: 1,200,000
  number of microorganisms after 28 days: 900,000
[4]; 0.1% in o/w emulsion
  number of microorganisms after 2 days: 1
  number of microorganisms after 7 days: 1
  number of microorganisms after 14 days: 1
  number of microorganisms after 28 days: 1
Candida albicans (CA); 0.1% in o/w emulsion
  number of microorganisms after 2 days: 1,600,000
  number of microorganisms after 7 days: 120,000
  number of microorganisms after 14 days: 890
  number of microorganisms after 28 days: 1

## CCCCCCC(O)C(C)O (centres unmarked) [2,3-nonanediol]
Corynebacterium jeikeium
  MIC: 2500 µg/mL (≈ 15.6 mM)
Staphylococcus hominis
  MIC: 5000 µg/mL (≈ 31.2 mM)
Staphylococcus aureus
  MIC: 2500 µg/mL (≈ 15.6 mM)
Candida albicans
  MIC: 2500 µg/mL (≈ 15.6 mM)
Escherichia coli
  MIC: 1000 µg/mL (≈ 6.24 mM)
Propionibacterium acnes
  MIC: 2500 µg/mL (≈ 15.6 mM)
Human sebaceous glands
  sebum reduction: 41%
Aspergillus brasiliensis; single 2,3-alkanediol, read-out: MIC Component B
  MIC: 1000 µg/mL
Escherichia coli (EC); 0.1% in o/w emulsion
  number of microorganisms after 2 days: 810,000
  number of microorganisms after 7 days: 27,000
  number of microorganisms after 14 days: 1,100
  number of microorganisms after 28 days: 1
Escherichia coli (EC); 0.1% in shampoo
  number of microorganisms after 2 days: 2,300,000
  number of microorganisms after 7 days: 4,200,000
  number of microorganisms after 14 days: 1,800,000
  number of microorganisms after 28 days: 1,100,000
Escherichia coli (EC); 0.4% in shampoo
  number of microorganisms after 2 days: 3,200,000
  number of microorganisms after 7 days: 4,200,000
  number of microorganisms after 14 days: 1,300,000
  number of microorganisms after 28 days: 1,400,000
[2]; 0.1% in o/w emulsion
  number of microorganisms after 2 days: 2,200,000
  number of microorganisms after 7 days: 66,000
  number of microorganisms after 14 days: 1
  number of microorganisms after 28 days: 1
[2]; 0.1% in shampoo
  number of microorganisms after 2 days: 31,000
  number of microorganisms after 7 days: 200
  number of microorganisms after 14 days: 1
  number of microorganisms after 28 days: 1
[2]; 0.4% in shampoo
  number of microorganisms after 2 days: 1,800
  number of microorganisms after 7 days: 1
  number of microorganisms after 14 days: 1
  number of microorganisms after 28 days: 1
[3]; 0.1% in o/w emulsion
  number of microorganisms after 2 days: 1,200,000
  number of microorganisms after 7 days: 1,100,000
  number of microorganisms after 14 days: 890,000
  number of microorganisms after 28 days: 1,100,000
[3]; 0.1% in shampoo
  number of microorganisms after 2 days: 1,800,000
  number of microorganisms after 7 days: 2,000,000
  number of microorganisms after 14 days: 680,000
  number of microorganisms after 28 days: 530,000
[3]; 0.4% in shampoo
  number of microorganisms after 2 days: 2,100,000
  number of microorganisms after 7 days: 1,800,000
  number of microorganisms after 14 days: 1,200,000
  number of microorganisms after 28 days: 1,100,000
[4]; 0.1% in o/w emulsion
  number of microorganisms after 2 days: 1
  number of microorganisms after 7 days: 1
  number of microorganisms after 14 days: 1
  number of microorganisms after 28 days: 1
[4]; 0.1% in shampoo
  number of microorganisms after 2 days: 160,000
  number of microorganisms after 7 days: 2,000,000
  number of microorganisms after 14 days: 10,000,000
  number of microorganisms after 28 days: 8,800,000
[4]; 0.4% in shampoo
  number of microorganisms after 2 days: 17,000
  number of microorganisms after 7 days: 1
  number of microorganisms after 14 days: 1
  number of microorganisms after 28 days: 1
Candida albicans (CA); 0.1% in o/w emulsion
  number of microorganisms after 2 days: 2,000,000
  number of microorganisms after 7 days: 2,500,000
  number of microorganisms after 14 days: 1,900,000
  number of microorganisms after 28 days: 970,000
Candida albicans (CA); 0.1% in shampoo
  number of microorganisms after 2 days: 110,000
  number of microorganisms after 7 days: 29,000
  number of microorganisms after 14 days: 870
  number of microorganisms after 28 days: 1
Candida albicans (CA); 0.4% in shampoo
  number of microorganisms after 2 days: 68,000
  number of microorganisms after 7 days: 14,000
  number of microorganisms after 14 days: 690
  number of microorganisms after 28 days: 1
